According to PMC11022538, “Antibacterial insights into alternariol and its derivative alternariol monomethyl ether produced by a marine fungus” (Applied and Environmental Microbiology, 2024):

Columns and labels:
Assay in all cases: plasmid pCT74 unwinding, agarose gel
Type in all cases: biochemical
Conditions in all cases: AOH 4 µg/mL (Fig 6; 1 µg in a 20 µL reaction), 5 min pre-incubation, 37°C, Mg2+; qualitative inhibition; no ATP listed
Top1 = target: T1, Top1 (Staphylococcus aureus, UniProt P20831)
T1 construct: gene gyrA; full gene in pET28a, His-tagged, E. coli BL21(DE3), Ni column; tag kept

Top4 = target: T2, Top4 (Staphylococcus aureus, UniProt Q99S17)
T2 construct: gene topB; full gene in pET28a, His-tagged, E. coli BL21(DE3), Ni column; tag kept

Topc = target: T3, Topc (Staphylococcus aureus, UniProt P0A0K8+P20831)
T3 construct: gene gyrA; Top1 and Top2 combined; each in pET28a, His-tagged, E. coli BL21(DE3)

Top3 = target: T4, Top3 (Staphylococcus aureus, UniProt Q5HGI2)
T4 construct: gene topA; full gene in pET28a, His-tagged, E. coli BL21(DE3), Ni column; tag kept
T4 sequence (Q5HGI2 whole entry): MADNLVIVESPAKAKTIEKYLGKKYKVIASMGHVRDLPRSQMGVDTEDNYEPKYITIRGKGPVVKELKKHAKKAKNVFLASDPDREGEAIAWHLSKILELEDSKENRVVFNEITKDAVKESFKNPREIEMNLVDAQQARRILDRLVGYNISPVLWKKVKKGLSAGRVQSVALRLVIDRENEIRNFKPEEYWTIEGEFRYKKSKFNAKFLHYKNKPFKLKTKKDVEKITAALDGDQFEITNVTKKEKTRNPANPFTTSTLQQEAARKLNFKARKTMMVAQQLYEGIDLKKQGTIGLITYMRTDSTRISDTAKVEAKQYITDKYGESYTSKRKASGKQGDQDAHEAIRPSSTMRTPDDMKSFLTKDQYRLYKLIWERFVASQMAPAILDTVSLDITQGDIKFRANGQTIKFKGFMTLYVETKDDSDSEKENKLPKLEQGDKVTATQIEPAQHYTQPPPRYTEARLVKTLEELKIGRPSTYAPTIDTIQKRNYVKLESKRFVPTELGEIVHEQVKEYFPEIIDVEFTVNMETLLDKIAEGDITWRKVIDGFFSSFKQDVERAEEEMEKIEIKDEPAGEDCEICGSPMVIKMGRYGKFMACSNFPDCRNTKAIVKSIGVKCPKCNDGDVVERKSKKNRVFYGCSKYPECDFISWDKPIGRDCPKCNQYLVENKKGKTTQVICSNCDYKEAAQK

T1 sequence (P20831 whole entry): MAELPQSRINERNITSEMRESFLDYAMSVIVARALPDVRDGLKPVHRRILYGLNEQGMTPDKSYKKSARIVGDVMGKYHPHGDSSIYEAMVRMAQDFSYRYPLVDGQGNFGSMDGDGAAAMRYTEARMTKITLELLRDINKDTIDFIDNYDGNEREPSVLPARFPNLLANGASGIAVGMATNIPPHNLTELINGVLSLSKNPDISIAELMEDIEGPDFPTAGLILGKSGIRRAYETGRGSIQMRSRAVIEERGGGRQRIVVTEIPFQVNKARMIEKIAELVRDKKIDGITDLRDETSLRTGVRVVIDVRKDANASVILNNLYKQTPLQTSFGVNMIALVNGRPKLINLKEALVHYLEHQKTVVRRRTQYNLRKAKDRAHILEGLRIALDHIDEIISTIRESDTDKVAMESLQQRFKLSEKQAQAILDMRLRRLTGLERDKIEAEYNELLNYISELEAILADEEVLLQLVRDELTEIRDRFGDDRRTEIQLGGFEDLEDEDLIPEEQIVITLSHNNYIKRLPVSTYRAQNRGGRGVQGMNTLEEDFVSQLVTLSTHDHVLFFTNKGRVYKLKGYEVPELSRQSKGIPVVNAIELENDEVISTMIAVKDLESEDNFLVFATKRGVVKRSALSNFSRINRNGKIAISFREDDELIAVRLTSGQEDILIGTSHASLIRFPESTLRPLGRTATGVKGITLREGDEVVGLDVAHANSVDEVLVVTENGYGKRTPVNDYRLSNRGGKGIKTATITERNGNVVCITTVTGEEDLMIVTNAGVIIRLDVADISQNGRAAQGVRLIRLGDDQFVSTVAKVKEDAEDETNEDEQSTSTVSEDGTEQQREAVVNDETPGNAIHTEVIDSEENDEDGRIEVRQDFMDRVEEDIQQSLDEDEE
T3 sequence (P20831 whole entry): as above
T3 sequence (P0A0K8 2-644): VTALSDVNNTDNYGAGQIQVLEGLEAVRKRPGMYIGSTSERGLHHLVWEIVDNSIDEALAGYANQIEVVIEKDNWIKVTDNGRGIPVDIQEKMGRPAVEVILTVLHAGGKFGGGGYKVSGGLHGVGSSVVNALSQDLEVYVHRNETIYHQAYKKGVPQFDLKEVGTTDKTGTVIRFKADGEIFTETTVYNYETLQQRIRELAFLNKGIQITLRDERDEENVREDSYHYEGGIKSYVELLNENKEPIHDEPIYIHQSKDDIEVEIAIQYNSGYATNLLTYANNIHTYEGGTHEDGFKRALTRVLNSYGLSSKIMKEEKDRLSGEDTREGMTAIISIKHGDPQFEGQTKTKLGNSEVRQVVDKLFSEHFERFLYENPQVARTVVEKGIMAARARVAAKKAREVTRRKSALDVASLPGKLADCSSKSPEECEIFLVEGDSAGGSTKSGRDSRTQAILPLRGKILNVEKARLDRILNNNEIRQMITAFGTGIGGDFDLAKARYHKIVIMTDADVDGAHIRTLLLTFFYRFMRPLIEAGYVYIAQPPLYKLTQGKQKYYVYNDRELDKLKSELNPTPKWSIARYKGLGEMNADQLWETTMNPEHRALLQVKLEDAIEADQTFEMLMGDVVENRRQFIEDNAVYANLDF
T2 sequence (Q99S17 whole entry): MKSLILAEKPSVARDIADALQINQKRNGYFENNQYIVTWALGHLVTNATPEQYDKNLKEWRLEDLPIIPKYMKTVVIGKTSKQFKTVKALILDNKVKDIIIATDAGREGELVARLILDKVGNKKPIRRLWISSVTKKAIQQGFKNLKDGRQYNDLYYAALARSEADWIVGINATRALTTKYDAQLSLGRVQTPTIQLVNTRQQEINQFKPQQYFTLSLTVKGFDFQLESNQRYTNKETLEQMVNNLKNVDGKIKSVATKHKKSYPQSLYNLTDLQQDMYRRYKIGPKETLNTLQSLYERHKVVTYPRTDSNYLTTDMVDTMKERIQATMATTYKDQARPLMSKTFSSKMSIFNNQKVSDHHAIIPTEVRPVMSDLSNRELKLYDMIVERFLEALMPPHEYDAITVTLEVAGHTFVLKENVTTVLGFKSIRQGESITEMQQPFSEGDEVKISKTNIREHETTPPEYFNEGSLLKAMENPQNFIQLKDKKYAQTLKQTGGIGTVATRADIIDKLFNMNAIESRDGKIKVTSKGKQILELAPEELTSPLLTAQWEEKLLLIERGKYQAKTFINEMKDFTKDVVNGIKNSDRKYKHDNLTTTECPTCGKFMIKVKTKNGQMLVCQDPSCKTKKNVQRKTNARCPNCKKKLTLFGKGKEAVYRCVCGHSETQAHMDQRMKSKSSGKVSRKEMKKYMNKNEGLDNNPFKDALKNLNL

## Cc1cc(O)cc2oc(=O)c3c(O)cc(O)cc3c12 [compound 1, alternariol]
Top1
  plasmid pCT74 unwinding, agarose gel: AOH effectively blocked the unwinding activities of the above four topoisomerases
Top4
  plasmid pCT74 unwinding, agarose gel: AOH effectively blocked the unwinding activities of the above four topoisomerases
Topc
  plasmid pCT74 unwinding, agarose gel: AOH effectively blocked the unwinding activities of the above four topoisomerases
Top3
  plasmid pCT74 unwinding, agarose gel: AOH effectively blocked the unwinding activities of the above four topoisomerases
